Columns and labels:
Type in all cases: in vivo, nude mice (Balb/c nu/nu)
[1] = Tissue concentrations by ICP-AES after 0.1 mmol/kg i.v. in nude mice with subcutaneously implanted colon cancers (HT29, WiDr); conditions: 2 hours p.i. (so in the source)
[2] = as above
Experimental: (§1) a) 9 nude mice (Balb/c nu/nu) with subcutaneously implanted colon cancers (HT29, WiDr) were each administered by i.v. 0.1 mmol/kg of the mesoporphyrin derivative of example 1b (10 mmol/l dissolved in bidistilled water, pH 7.2, 37° C.). After 0.5, 3 and 24 hours the animals were killed and dissected. The tissue concentrations were determined after corresponding working-up (HNO3 conc.) by ICP-AES and calculated for % of the administered dose per gram of tissue net weight.
e) 9 nude mice (Balb/c nu/nu) with subcutaneously implanted colon cancers (HT29 and WiDr) were each administered by i.v. 0.1 mmol/kg of the deuteroporphyrin derivative of the compound according to example 1c (10 mmol/l dissolved in bidistilled water, pH 7.2, 37° C.). After 0.5, 3 and 24 hours, the animals were killed and dissected. The tissue concentrations were determined after corresponding working-up (HNO3 conc.) by ICP-AES and calculated for % of the administered dose per gram of tissue net weight. Moreover, tissue relaxation times T1 and T2 were determined (Bruker minispec pc 120).
as §1, with “9” for “a) 9”, “8e” for “1b”, “hours,” for “hours”
as §1, with “9” for “a) 9”, “0.1.” for “0.1”, “16f” for “1b”, “0.5 and” for “0.5,”, “3” for “3 and 24”
as §1, with “9” for “a) 9”, “18d” for “1b”, “0.5 and” for “0.5,”, “hours,” for “and 24 hours”
as §1, with “9” for “a) 9”, “19e” for “1b”, “hours,” for “hours”

[3] = test system: HT29 and WiDr colon cancer; experiment: Signal intensity change in tissues of tumor-bearing (HT29 and WiDr colon cancer) nude mice, example 2c, 0.05 mmol/kg; conditions: 0.05 mmol/kg i.v.; for enhancement, HT29 / enhancement, Kidneys / enhancement, Liver / enhancement, Muscle / enhancement, WiDr: time 0 = 100
Experimental: On a Bruker Biospec nuclear spin tomograph (2.35 Tesla), the signal intensity change in various tissues of tumor-bearing (HT29 and WiDr colon cancer) nude mice (Balb/c nu/nu) was studied after i.v. administration of 0.05 mmol/kg of the compound according to example 2c (10 mmol/l, pH 7.2; 37° C. in bidistilled water). The measurement takes place with a multi slice single echo sequence (MSSE). Imaging parameters: TR: 400 ms, TE: 30 ms, layer thickness: 4 mm, number of averages: 4/slice, matrix 256^2. After a preliminary image, 0.05 mmol/kg of the substance was administered and the signal intensity change (relative to an internal standard) was studied 5, 30, 60, 120 and 180 minutes

[4] = test system: HT29 and WiDr colon cancers; experiment: Enhancement (signal intensity change, NMR imaging) in tissues with HT29/WiDr tumors, Example 22 Table 2

Zinc(II)-{N,N'-bis[11-carboxylato-2-oxo-4,7,10-tris-(carboxylatomethyl)-1,4,7,10-tetraazaundecyl]-3,8-bis-(2-(naphth-1-yl)-ethyl)-deuteroporphyrin-IX-13,17-diamide}, digadolinium complex, disodium salt [Example 18d]
tissue concentration, liver [1]: ~17 % of the administered dose per | tissue concentration, HT29 tumor ([2]; 0.5 hour p.i.): 1.48 ± 0.28 % of the administered dose per gram of tissue net weight | tissue concentration, WiDr tumor ([2]; 0.5 hour p.i.): 1.94 ± 0.78 % of the administered dose per gram of tissue net weight | tissue concentration, blood ([2]; 0.5 hour p.i.): 24.44 ± 2.32 % of the administered dose per gram of tissue net weight | tissue concentration, intestine ([2]; 0.5 hour p.i.): 4.93 ± 0.90 % of the administered dose per gram of tissue net weight | tissue concentration, kidneys ([2]; 0.5 hour p.i.): 11.74 ± 2.38 % of the administered dose per gram of tissue net weight | tissue concentration, lung ([2]; 0.5 hour p.i.): 17.70 ± 2.50 % of the administered dose per gram of tissue net weight | tissue concentration, muscle ([2]; 0.5 hour p.i.): 0.89 ± 0.17 % of the administered dose per gram of tissue net weight | tissue concentration, rest of body ([2]; 0.5 hour p.i.): 2.38 ± 0.27 % of the administered dose per gram of tissue net weight | tissue concentration, skin ([2]; 0.5 hour p.i.): 3.71 ± 0.52 % of the administered dose per gram of tissue net weight | tissue concentration, spleen ([2]; 0.5 hour p.i.): 7.52 ± 0.40 % of the administered dose per gram of tissue net weight | tissue concentration, HT29 tumor ([2]; 3 hours p.i.): 3.53 ± 0.52 % of the administered dose per gram of tissue net weight | tissue concentration, WiDr tumor ([2]; 3 hours p.i.): 4.50 ± 0.98 % of the administered dose per gram of tissue net weight | tissue concentration, blood ([2]; 3 hours p.i.): 16.95 ± 1.53 % of the administered dose per gram of tissue net weight | tissue concentration, intestine ([2]; 3 hours p.i.): 2.31 ± 0.28 % of the administered dose per gram of tissue net weight | tissue concentration, kidneys ([2]; 3 hours p.i.): 20.41 ± 1.88 % of the administered dose per gram of tissue net weight | tissue concentration, liver ([2]; 3 hours p.i.): 16.89 ± 1.15 % of the administered dose per gram of tissue net weight | tissue concentration, lung ([2]; 3 hours p.i.): 17.56 ± 3.34 % of the administered dose per gram of tissue net weight | tissue concentration, muscle ([2]; 3 hours p.i.): 1.04 ± 0.06 % of the administered dose per gram of tissue net weight | tissue concentration, rest of body ([2]; 3 hours p.i.): 2.43 ± 0.13 % of the administered dose per gram of tissue net weight | tissue concentration, skin ([2]; 3 hours p.i.): 4.46 ± 0.53 % of the administered dose per gram of tissue net weight | tissue concentration, spleen ([2]; 3 hours p.i.): 10.82 ± 0.87 % of the administered dose per gram of tissue net weight

N,N'-Bis[13-carboxylato-4-oxo-6,8,12-tris-(carboxylatomethyl)-3,6,9,12-tetraazatridecyl]-mesoporphyrin--IX-3,17-diamide, digadolinium complex, disodium salt [Example 2c]
time of greatest signal intensity difference [3]: 2 hours p.i. or 3 hours p.i. | enhancement, HT29 ([3]; 5 min): 171 ± 14 | enhancement, Kidneys ([3]; 5 min): 169 ± 45 | enhancement, Liver ([3]; 5 min): 173 ± 31 | enhancement, Muscle ([3]; 5 min): 143 ± 23 | enhancement, WiDr ([3]; 5 min): 165 ± 39 | signal intensity change, liver tissue and both tumors ([3]; 5 minutes p.i.): marked signal intensity increase | enhancement, HT29 ([3]; 30 min): 169 ± 14 | enhancement, Kidneys ([3]; 30 min): 211 ± 33 | enhancement, Liver ([3]; 30 min): 157 ± 30 | enhancement, Muscle ([3]; 30 min): 157 ± 29 | enhancement, WiDr ([3]; 30 min): 170 ± 32 | enhancement, HT29 ([3]; 60 min): 168 ± 12 | enhancement, Kidneys ([3]; 60 min): 207 ± 31 | enhancement, Liver ([3]; 60 min): 170 ± 16 | enhancement, Muscle ([3]; 60 min): 120 ± 8 | enhancement, WiDr ([3]; 60 min): 153 ± 33 | enhancement, HT29 ([3]; 120 min): 178 ± 32 | enhancement, Kidneys ([3]; 120 min): 191 ± 37 | enhancement, Liver ([3]; 120 min): 179 ± 37 | enhancement, Muscle ([3]; 120 min): 126 ± 10 | enhancement, WiDr ([3]; 120 min): 153 ± 0 | enhancement, HT29 ([3]; 180 min): 136 ± 23 | enhancement, Kidneys ([3]; 180 min): 136 ± 25 | enhancement, Liver ([3]; 180 min): 167 ± 7 | enhancement, Muscle ([3]; 180 min): 112 ± 9 | enhancement, WiDr ([3]; 180 min): 117 ± 33 | signal intensity change, muscle ([3]; reference tissue): only a small change | signal intensity change, kidneys ([3]; up to 2 hours p.i.): even stronger signal intensity change

13,17-Bis-(15-carboxylato-6-oxo-8,11,14-tris-(carboxylatomethyl)-5,8,11,14-tetraazapentadecyl]-3,8-diethyl-2,7,12,18-tetramethylporphyrin, digadolinium complex, disodium salt [Example 19e]
decrease of tissue concentration except liver, relative to 0.5 hour p.i. ([2]; within 24 hours): 5-20 factor

N,N'-Bis[9-carboxylato-2,5-bis(carboxylatomethyl)-8-(ethoxycarboxymethyl-2,5,8-triazanonyl-carbamoyl]-mesoporphyrin-IX-13,17-diamide, digadolinium complex [Example 1b]
enhancement, HT29 ([4]; 5 min): 1.36 | enhancement, Kidneys ([4]; 5 min): 2.89 | enhancement, Liver ([4]; 5 min): 1.43 | enhancement, Muscle ([4]; 5 min): 1.41 | enhancement, WiDr ([4]; 5 min): 1.16 | signal intensity change, liver tissue ([4]; 5 minutes p.i.): marked signal intensity increase | enhancement, HT29 ([4]; 15 min): 1.49 | enhancement, Kidneys ([4]; 15 min): 2.70 | enhancement, Liver ([4]; 15 min): 1.43 | enhancement, Muscle ([4]; 15 min): 1.41 | enhancement, WiDr ([4]; 15 min): 1.16 | enhancement, HT29 ([4]; 30 min): 1.54 | enhancement, Kidneys ([4]; 30 min): 2.65 | enhancement, Liver ([4]; 30 min): 1.40 | enhancement, Muscle ([4]; 30 min): 1.39 | enhancement, WiDr ([4]; 30 min): 1.18 | enhancement, HT29 ([4]; 45 min): 1.55 | enhancement, Kidneys ([4]; 45 min): 2.79 | enhancement, Liver ([4]; 45 min): 1.42 | enhancement, Muscle ([4]; 45 min): 1.40 | enhancement, WiDr ([4]; 45 min): 1.25 | enhancement, HT29 ([4]; 60 min): 1.59 | enhancement, Kidneys ([4]; 60 min): 2.56 | enhancement, Liver ([4]; 60 min): 1.38 | enhancement, Muscle ([4]; 60 min): 1.29 | enhancement, WiDr ([4]; 60 min): 1.05 | enhancement, HT29 ([4]; 75 min): 1.97 | enhancement, Kidneys ([4]; 75 min): 2.53 | enhancement, Liver ([4]; 75 min): 1.51 | enhancement, Muscle ([4]; 75 min): 1.47 | enhancement, WiDr ([4]; 75 min): 1.23 | maximum enhancement, liver ([4]; 75 minutes p.i.): +50% | maximum enhancement, tumor ([4]; 75 minutes p.i.): +100% | enhancement, HT29 ([4]; 90 min): 1.51 | enhancement, Kidneys ([4]; 90 min): 2.40 | enhancement, Liver ([4]; 90 min): 1.43 | enhancement, Muscle ([4]; 90 min): 1.50 | enhancement, WiDr ([4]; 90 min): 1.28 | enhancement, HT29 ([4]; 120 min): 1.64 | enhancement, Kidneys ([4]; 120 min): 2.15 | enhancement, Liver ([4]; 120 min): 1.47 | enhancement, Muscle ([4]; 120 min): 1.34 | enhancement, WiDr ([4]; 120 min): 1.22 | enhancement, HT29 ([4]; 24 hours): 1.05 | enhancement, Kidneys ([4]; 24 hours): 1.51 | enhancement, Liver ([4]; 24 hours): 1.19 | enhancement, Muscle ([4]; 24 hours): 1.24 | enhancement, WiDr ([4]; 24 hours): 1.64 | signal intensity change, tumor ([4]; after 30 minutes): marked signal intensity increase | signal intensity change, kidneys ([4]; mouse, in vivo): stronger signal intensity change | signal intensity change, muscle ([4]; reference tissue): only a small change
